# Experimental data as given in article PMC8359193, “Summary of reference chemicals evaluated by the fish short‐term reproduction assay, OECD TG229, using Japanese Medaka, Oryzias latipes” (Journal of Applied Toxicology, 2021).
# “Also recorded” adds a separate entry of the source.
# Tests used:
# [1] = tested on: Japanese medaka (Oryzias latipes); assay: Fish short-term reproduction assay (FSTRA, OECD TG229), 21-day flow-through exposure; conditions: for Fertility rate (%) / Mortality (%) Female / Mortality (%) Male / Number of fertilized eggs / Number of total eggs / SSC Female / SSC Male / VTG (ng/mg of liver) Female / VTG (ng/mg of liver) Male: 21 days; for GSI Female / GSI Male / HSI Female / HSI Male / Length Female / Length Male / Weight Female / Weight Male: at completion of exposure
# Summary of the method: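 Japanese medaka (NIES-R strain, 16 ± 2 weeks old) were exposed in flow-through tanks for 3 weeks, three males and three females per tank, four replicate tanks per group, with a dilution water control. Concentrations were spaced by a factor of 2–5. Eggs were collected daily and counted as fertilized or unfertilized.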
# Japanese medaka = conditions: MMT, ref Flynn et al. (2017), cited from earlier work
# medaka ARβ (mARβ) = medaka ARβ (mARβ) (Oryzias latipes, UniProt D1MV73); assay: Medaka ARβ reporter gene assay (RGA), antagonist assay with 50 nM 11KT, HepG2 cells; type: cell-based, Japanese medaka (Oryzias latipes); conditions: 50 nM 11KT-induced mARβ activity
# medaka ARβ (mARβ), sequence (D1MV73 entry or part of it): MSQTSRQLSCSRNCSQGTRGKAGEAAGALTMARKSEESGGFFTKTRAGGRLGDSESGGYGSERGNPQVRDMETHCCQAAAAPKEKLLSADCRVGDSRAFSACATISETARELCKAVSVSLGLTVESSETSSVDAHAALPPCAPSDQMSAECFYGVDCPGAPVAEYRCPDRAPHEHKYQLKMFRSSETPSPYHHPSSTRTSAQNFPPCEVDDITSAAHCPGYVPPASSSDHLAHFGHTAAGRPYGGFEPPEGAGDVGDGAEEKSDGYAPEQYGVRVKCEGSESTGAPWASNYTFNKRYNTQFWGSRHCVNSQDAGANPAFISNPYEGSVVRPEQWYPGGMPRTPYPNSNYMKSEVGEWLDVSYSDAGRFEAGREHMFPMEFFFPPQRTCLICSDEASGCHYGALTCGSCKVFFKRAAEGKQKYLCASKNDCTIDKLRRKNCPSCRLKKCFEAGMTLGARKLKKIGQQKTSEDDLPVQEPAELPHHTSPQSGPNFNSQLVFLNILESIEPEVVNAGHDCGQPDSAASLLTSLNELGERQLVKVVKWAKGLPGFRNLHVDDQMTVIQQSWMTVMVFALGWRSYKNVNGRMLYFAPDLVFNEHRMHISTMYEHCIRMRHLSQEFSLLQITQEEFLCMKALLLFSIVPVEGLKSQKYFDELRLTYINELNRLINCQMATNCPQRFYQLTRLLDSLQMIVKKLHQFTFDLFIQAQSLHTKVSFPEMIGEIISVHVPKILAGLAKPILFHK
# Procedure: To support interpretation of the biological effects observed in the FSTRA studies, in vitro RGAs using medaka Esr1 (mEsr1) and medaka ARβ (mARβ) were performed for the 16 test chemicals. In the present study, Esr1 and ARβ, which are ancestral subtypes among Esrs and ARs in Japanese medaka, were selected based on the phylogenetical analyses of Esr and AR with each receptor RGAs (Ogino et al., [2016], [2018]; Tohyama et al., [2015]).
# The mARβ RGA in which the agonist and the antagonist assays were performed as same as the mEsr1 RGA was carried out according to the methods previously reported by Lange et al. ([2015]). For the assays, human liver cancer cell line, HepG2, was used as the host cells, and mARβ/pcDNA3.1, MMTV‐Luc, and pRL‐TK‐Rlu were used as mARβ expression vector, reporter vector, and internal control vector, respectively. Other materials and methods, for example, operating procedure, reagents, and incubation conditions, were almost the same as the mEsr1 RGA previously described beside that 11KT (Sigma‐Aldrich, purity 99.0%), a main AR ligand in fish, was competitively spiked at 50 nM into the test medium with test chemicals in antagonist assay. In the agonist and the antagonist assays, 11KT and 2‐hydroxyflutamide (2HFLT; Sigma‐Aldrich, purity 98.5%) were used as positive controls, respectively.
# Effect concentrations, that is, EC50 (a half maximal effective concentration) in the agonist assay and IC50 (a half maximal inhibitory concentration) in the antagonist assay, were estimated by nonlinear curve fitting (e.g., three parameters logistic regression curve) using GraphPad Prism (GraphPad Software Inc., La Jolla, CA, USA).
# fathead minnow = tested on: fathead minnow; design: method as in US EPA, 2007; conditions: three participating laboratories; ref US EPA, 2007; cited from earlier work
smiles,measurement,setting,value
"C=CC1(C)OC(=O)N(c2cc(Cl)cc(Cl)c2)C1=O (centres unmarked) [VCZ, Vinclozolin]","effect on fertility rate, in words",[1]; 21-day exposure,significant decrease; also recorded: significant reduction
same,Fertility rate (%),[1]; measured conc. 14.5 μg/L,95%
same,Mortality (%) Female,[1]; measured conc. 14.5 μg/L,0%
same,Mortality (%) Male,[1]; measured conc. 14.5 μg/L,0%
same,Number of fertilized eggs,[1]; measured conc. 14.5 μg/L,22
same,Number of total eggs,[1]; measured conc. 14.5 μg/L,24 ± 2.6 /female/day
same,SSC Female,[1]; measured conc. 14.5 μg/L,0 ± 0
same,SSC Male,[1]; measured conc. 14.5 μg/L,108 ± 18
same,VTG (ng/mg of liver) Female,[1]; measured conc. 14.5 μg/L,886 ± 300 ng/mg of liver
same,VTG (ng/mg of liver) Male,[1]; measured conc. 14.5 μg/L,7.5 ± 7.2 ng/mg of liver
same,GSI Female,[1]; measured conc. 14.5 μg/L,11.8%
same,GSI Male,[1]; measured conc. 14.5 μg/L,1.09%
same,HSI Female,[1]; measured conc. 14.5 μg/L,4.6%
same,HSI Male,[1]; measured conc. 14.5 μg/L,1.7%
same,Length Female,[1]; measured conc. 14.5 μg/L,35.2 mm
same,Length Male,[1]; measured conc. 14.5 μg/L,34.8 mm
same,Weight Female,[1]; measured conc. 14.5 μg/L,447 mg
same,Weight Male,[1]; measured conc. 14.5 μg/L,455 mg
same,Fertility rate (%),[1]; measured conc. 43.9 μg/L,94%
same,Mortality (%) Female,[1]; measured conc. 43.9 μg/L,0%
same,Mortality (%) Male,[1]; measured conc. 43.9 μg/L,0%
same,Number of fertilized eggs,[1]; measured conc. 43.9 μg/L,22
same,Number of total eggs,[1]; measured conc. 43.9 μg/L,23 ± 5.3 /female/day
same,SSC Female,[1]; measured conc. 43.9 μg/L,0 ± 0
same,SSC Male,[1]; measured conc. 43.9 μg/L,95 ± 16
same,VTG (ng/mg of liver) Female,[1]; measured conc. 43.9 μg/L,816 ± 278 ng/mg of liver
same,VTG (ng/mg of liver) Male,[1]; measured conc. 43.9 μg/L,10 ± 12 ng/mg of liver
same,GSI Female,[1]; measured conc. 43.9 μg/L,10.7%
same,GSI Male,[1]; measured conc. 43.9 μg/L,1.24%
same,HSI Female,[1]; measured conc. 43.9 μg/L,4.7%
same,HSI Male,[1]; measured conc. 43.9 μg/L,1.7%
same,Length Female,[1]; measured conc. 43.9 μg/L,35.0 mm
same,Length Male,[1]; measured conc. 43.9 μg/L,34.4 mm
same,Weight Female,[1]; measured conc. 43.9 μg/L,445 mg
same,Weight Male,[1]; measured conc. 43.9 μg/L,427 mg
same,Fertility rate (%),[1]; measured conc. 137 μg/L,90%
same,Mortality (%) Female,[1]; measured conc. 137 μg/L,0%
same,Mortality (%) Male,[1]; measured conc. 137 μg/L,0%
same,Number of fertilized eggs,[1]; measured conc. 137 μg/L,19
same,Number of total eggs,[1]; measured conc. 137 μg/L,21 ± 4.3 /female/day
same,SSC Female,[1]; measured conc. 137 μg/L,0 ± 0
same,SSC Male,[1]; measured conc. 137 μg/L,108 ± 16
same,VTG (ng/mg of liver) Female,[1]; measured conc. 137 μg/L,651 ± 217 ng/mg of liver
same,VTG (ng/mg of liver) Male,[1]; measured conc. 137 μg/L,3.6 ± 2.3 ng/mg of liver
same,GSI Female,[1]; measured conc. 137 μg/L,10.6%
same,GSI Male,[1]; measured conc. 137 μg/L,1.40%
same,HSI Female,[1]; measured conc. 137 μg/L,4.5%
same,HSI Male,[1]; measured conc. 137 μg/L,1.5%
same,Length Female,[1]; measured conc. 137 μg/L,34.8 mm
same,Length Male,[1]; measured conc. 137 μg/L,34.4 mm
same,Weight Female,[1]; measured conc. 137 μg/L,437 mg
same,Weight Male,[1]; measured conc. 137 μg/L,425 mg
same,Fertility rate (%),[1]; measured conc. 453 μg/L,84%
same,Mortality (%) Female,[1]; measured conc. 453 μg/L,0%
same,Mortality (%) Male,[1]; measured conc. 453 μg/L,0%
same,Number of fertilized eggs,[1]; measured conc. 453 μg/L,17
same,Number of total eggs,[1]; measured conc. 453 μg/L,20 ± 5.9 /female/day
same,SSC Female,[1]; measured conc. 453 μg/L,0 ± 0
same,SSC Male,[1]; measured conc. 453 μg/L,102 ± 17
same,VTG (ng/mg of liver) Female,[1]; measured conc. 453 μg/L,111 ± 92 ng/mg of liver
same,VTG (ng/mg of liver) Male,[1]; measured conc. 453 μg/L,3.9 ± 8.6 ng/mg of liver
same,GSI Female,[1]; measured conc. 453 μg/L,12.0%
same,GSI Male,[1]; measured conc. 453 μg/L,1.46%
same,HSI Female,[1]; measured conc. 453 μg/L,4.7%
same,HSI Male,[1]; measured conc. 453 μg/L,1.8%
same,Length Female,[1]; measured conc. 453 μg/L,34.8 mm
same,Length Male,[1]; measured conc. 453 μg/L,34.9 mm
same,Weight Female,[1]; measured conc. 453 μg/L,455 mg
same,Weight Male,[1]; measured conc. 453 μg/L,455 mg
same,"effect on fecundity (number of total eggs), in words","[1]; within the test concentrations, 21-day exposure",No effect
same,LOEC on SSC in females,Japanese medaka,33 µg/L
same,LOEC on reproduction (fecundity and/or fertility),Japanese medaka; long-term exposure,253 µg/L
same,mARβ antagonist activity (in words),medaka ARβ (mARβ),inhibited
same,nominal concentration with significant decrease in nuptial tubercle number in males,fathead minnow,900 µg/L
